From article PMC9067983, “Identification of highly selective type II kinase inhibitors with chiral peptidomimetic tails” (Journal of Enzyme Inhibition and Medicinal Chemistry, 2022)
Where a SMILES comes first, the peptide text is derived from it. [ ]: non-standard residue; d: D form. The star is where a group is joined. X1 = Cc1ccc(Nc2ncc3c(n2)N(C)C(=O)N(c2cc(C(=O)*)ccc2C)C3)cn1; Aib = CC(C)(N)C(=O)O

Key:
Assay in all cases: kinase selectivity profiling
Type in all cases: biochemical
Details in all cases: 10µM ATP, read-out: % inhibition (relative to DMSO)
[1] = molecular target: T1, ALK5/TGFBR1 (Homo sapiens, UniProt P36897)
T1 construct: purchased Reaction Biology Corp
Procedure: (§1) Full panel kinase profiling and kinase IC50 measurement were performed by using Reaction Biology Corp. (San Diego, USA).

[2] = molecular target: T2, Aurora A (Homo sapiens, UniProt O14965)
T2 construct: purchased Reaction Biology Corp
Procedure: as §1

[3] = molecular target: T3, CAMK1g (Homo sapiens, UniProt Q96NX5)
T3 construct: purchased Reaction Biology Corp
Procedure: as §1

[4] = molecular target: T4, CAMK2a (Homo sapiens, UniProt Q9UQM7)
T4 construct: purchased Reaction Biology Corp
Procedure: as §1

[5] = molecular target: T5, CAMK2g (Homo sapiens, UniProt Q13555)
T5 construct: purchased Reaction Biology Corp
Procedure: as §1

[6] = molecular target: T6, CDK19/cyclin C (Homo sapiens, UniProt Q9BWU1)
T6 construct: purchased Reaction Biology Corp
Procedure: as §1

[7] = molecular target: T7, CDK2/cyclin A (Homo sapiens, UniProt P24941)
T7 construct: purchased Reaction Biology Corp
Procedure: as §1

[8] = molecular target: T8, CDK2/cyclin O (Homo sapiens, UniProt P24941)
T8 construct: purchased Reaction Biology Corp
Procedure: as §1

[9] = molecular target: T9, CDK5/p35 (Homo sapiens, UniProt Q00535)
T9 construct: purchased Reaction Biology Corp
Procedure: as §1

[10] = molecular target: T10, CDK9/cyclin T1 (Homo sapiens, UniProt P50750)
T10 construct: purchased Reaction Biology Corp
T10 sequence (P50750 whole entry): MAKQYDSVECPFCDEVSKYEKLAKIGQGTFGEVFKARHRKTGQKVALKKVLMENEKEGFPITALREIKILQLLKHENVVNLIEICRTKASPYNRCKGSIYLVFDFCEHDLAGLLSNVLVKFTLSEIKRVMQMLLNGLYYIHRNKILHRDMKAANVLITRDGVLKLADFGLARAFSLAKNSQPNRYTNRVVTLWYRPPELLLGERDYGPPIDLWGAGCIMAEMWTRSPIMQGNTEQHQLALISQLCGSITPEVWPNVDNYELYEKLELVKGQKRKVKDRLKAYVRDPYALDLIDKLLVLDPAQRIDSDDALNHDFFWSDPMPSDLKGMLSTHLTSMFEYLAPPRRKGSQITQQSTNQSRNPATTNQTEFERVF
T10 sequence (O60563 whole entry partner): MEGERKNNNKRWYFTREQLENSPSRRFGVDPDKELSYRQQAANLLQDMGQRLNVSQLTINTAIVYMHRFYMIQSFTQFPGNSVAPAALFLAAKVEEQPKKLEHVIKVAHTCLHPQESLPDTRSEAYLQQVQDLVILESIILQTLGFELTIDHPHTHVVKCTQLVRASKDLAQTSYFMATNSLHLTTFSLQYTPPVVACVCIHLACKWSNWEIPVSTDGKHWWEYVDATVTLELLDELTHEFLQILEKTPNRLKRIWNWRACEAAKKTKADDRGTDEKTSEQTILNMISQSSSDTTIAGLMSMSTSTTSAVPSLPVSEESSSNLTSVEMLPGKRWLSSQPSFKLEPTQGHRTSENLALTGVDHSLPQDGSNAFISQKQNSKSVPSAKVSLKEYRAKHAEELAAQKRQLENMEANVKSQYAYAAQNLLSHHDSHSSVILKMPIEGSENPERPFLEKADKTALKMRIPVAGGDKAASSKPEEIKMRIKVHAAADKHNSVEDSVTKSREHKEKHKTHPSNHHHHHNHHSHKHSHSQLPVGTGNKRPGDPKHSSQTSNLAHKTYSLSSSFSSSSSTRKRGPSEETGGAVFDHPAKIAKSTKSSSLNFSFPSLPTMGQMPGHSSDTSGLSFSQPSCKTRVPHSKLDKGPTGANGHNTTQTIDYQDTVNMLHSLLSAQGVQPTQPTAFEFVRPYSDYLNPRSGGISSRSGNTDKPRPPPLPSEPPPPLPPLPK
Procedure: as §1

[11] = molecular target: T11, DCAMKL2 (Homo sapiens, UniProt Q8N568)
T11 construct: purchased Reaction Biology Corp
Procedure: as §1

[12] = molecular target: T12, DDR2 (Homo sapiens, UniProt Q16832)
T12 construct: purchased Reaction Biology Corp
Procedure: as §1

[13] = molecular target: T13, DYRK4 (Homo sapiens, UniProt Q9NR20)
T13 construct: purchased Reaction Biology Corp
Procedure: as §1

[14] = molecular target: T14, EPHA1 (Homo sapiens, UniProt P21709)
T14 construct: purchased Reaction Biology Corp
Procedure: as §1

[15] = molecular target: T15, EPHA8 (Homo sapiens, UniProt P29322)
T15 construct: purchased Reaction Biology Corp
Procedure: as §1

[16] = molecular target: T16, ERN1/IRE1 (Homo sapiens, UniProt O75460)
T16 construct: purchased Reaction Biology Corp
Procedure: as §1

[17] = molecular target: T17, FGFR2 (Homo sapiens, UniProt P21802)
T17 construct: purchased Reaction Biology Corp
T17 sequence (P21802 22-821): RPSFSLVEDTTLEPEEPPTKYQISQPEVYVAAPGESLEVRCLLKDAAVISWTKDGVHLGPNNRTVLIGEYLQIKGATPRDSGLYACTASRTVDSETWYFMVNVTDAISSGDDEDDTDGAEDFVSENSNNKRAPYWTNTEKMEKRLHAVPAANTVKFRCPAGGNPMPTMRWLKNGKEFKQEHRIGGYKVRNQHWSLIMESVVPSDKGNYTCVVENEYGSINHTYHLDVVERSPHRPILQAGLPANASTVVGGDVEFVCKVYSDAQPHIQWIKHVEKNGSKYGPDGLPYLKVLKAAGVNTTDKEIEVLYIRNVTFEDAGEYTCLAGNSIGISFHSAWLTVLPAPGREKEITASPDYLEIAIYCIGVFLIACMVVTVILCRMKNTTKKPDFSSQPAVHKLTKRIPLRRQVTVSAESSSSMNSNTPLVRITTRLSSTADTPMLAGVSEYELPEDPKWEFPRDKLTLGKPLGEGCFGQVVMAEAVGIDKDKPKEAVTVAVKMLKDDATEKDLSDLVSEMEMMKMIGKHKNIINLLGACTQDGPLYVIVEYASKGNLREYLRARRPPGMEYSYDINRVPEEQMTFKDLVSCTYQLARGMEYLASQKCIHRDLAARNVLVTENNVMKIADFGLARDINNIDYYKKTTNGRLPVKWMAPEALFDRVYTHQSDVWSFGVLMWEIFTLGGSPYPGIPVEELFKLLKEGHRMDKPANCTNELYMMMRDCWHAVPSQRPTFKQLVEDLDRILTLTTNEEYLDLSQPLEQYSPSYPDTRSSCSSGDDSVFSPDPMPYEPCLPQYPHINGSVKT
Procedure: as §1

[18] = molecular target: T18, FMS (Homo sapiens, UniProt P07333)
T18 construct: purchased Reaction Biology Corp
Procedure: as §1

[19] = molecular target: T19, Fgr (Homo sapiens, UniProt P09769)
T19 construct: purchased Reaction Biology Corp
Procedure: as §1

[20] = molecular target: T20, GCK/MAP4K2 (Homo sapiens, UniProt Q12851)
T20 construct: purchased Reaction Biology Corp
Procedure: as §1

[21] = molecular target: T21, GSK3b (Homo sapiens, UniProt P49841)
T21 construct: purchased Reaction Biology Corp
Procedure: as §1

[22] = molecular target: T22, HIPK3 (Homo sapiens, UniProt Q9H422)
T22 construct: purchased Reaction Biology Corp
Procedure: as §1

[23] = molecular target: T23, IRAK1 (Homo sapiens, UniProt P51617)
T23 construct: purchased Reaction Biology Corp
Procedure: as §1

[24] = molecular target: T24, MARK2/PAR-1Ba (Homo sapiens, UniProt Q7KZI7)
T24 construct: purchased Reaction Biology Corp
Procedure: as §1

[25] = molecular target: T25, MKK6 (Homo sapiens, UniProt P52564)
T25 construct: purchased Reaction Biology Corp
T25 sequence (P52564 whole entry): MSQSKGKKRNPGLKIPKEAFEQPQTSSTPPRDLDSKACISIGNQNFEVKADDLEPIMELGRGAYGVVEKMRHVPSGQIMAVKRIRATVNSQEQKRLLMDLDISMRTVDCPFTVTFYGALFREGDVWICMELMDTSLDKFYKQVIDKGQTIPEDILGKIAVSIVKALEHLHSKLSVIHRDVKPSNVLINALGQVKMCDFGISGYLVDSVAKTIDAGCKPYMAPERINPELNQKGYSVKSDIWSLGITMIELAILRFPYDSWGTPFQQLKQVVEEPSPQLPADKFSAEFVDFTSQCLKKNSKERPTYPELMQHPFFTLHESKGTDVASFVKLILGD
Procedure: as §1

[26] = molecular target: T26, MLK1/MAP3K9 (Homo sapiens, UniProt P80192)
T26 construct: purchased Reaction Biology Corp
Procedure: as §1

[27] = molecular target: T27, MSK1/RPS6KA5 (Homo sapiens, UniProt O75582)
T27 construct: purchased Reaction Biology Corp
Procedure: as §1

[28] = molecular target: T28, MYLK3 (Homo sapiens, UniProt Q32MK0)
T28 construct: purchased Reaction Biology Corp
Procedure: as §1

[29] = molecular target: T29, PKCb1 (Homo sapiens, UniProt P05771)
T29 construct: purchased Reaction Biology Corp
T29 sequence (P05771 whole entry): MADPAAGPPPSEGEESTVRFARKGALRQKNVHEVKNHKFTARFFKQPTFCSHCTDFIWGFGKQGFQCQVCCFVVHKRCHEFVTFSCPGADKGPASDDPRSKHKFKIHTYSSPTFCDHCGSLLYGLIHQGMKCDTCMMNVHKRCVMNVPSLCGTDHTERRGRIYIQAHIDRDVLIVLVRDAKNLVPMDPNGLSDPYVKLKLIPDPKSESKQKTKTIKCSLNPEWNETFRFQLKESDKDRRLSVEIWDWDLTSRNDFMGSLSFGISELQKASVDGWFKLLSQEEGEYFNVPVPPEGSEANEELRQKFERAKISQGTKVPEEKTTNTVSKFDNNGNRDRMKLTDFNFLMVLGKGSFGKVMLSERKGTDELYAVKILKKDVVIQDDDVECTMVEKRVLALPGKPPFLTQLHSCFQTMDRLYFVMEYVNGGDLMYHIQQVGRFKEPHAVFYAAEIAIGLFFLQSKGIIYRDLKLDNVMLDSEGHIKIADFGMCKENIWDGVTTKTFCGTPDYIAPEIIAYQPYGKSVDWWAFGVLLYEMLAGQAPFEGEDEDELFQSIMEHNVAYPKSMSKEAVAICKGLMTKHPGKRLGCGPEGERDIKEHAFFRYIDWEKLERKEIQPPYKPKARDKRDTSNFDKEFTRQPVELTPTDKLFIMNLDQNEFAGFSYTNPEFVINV
Procedure: as §1

[30] = molecular target: T30, PKCiota (Homo sapiens, UniProt P41743)
T30 construct: purchased Reaction Biology Corp
Procedure: as §1

[31] = molecular target: T31, PKCmu/PRKD1 (Homo sapiens, UniProt Q15139)
T31 construct: purchased Reaction Biology Corp
T31 sequence (Q15139 whole entry): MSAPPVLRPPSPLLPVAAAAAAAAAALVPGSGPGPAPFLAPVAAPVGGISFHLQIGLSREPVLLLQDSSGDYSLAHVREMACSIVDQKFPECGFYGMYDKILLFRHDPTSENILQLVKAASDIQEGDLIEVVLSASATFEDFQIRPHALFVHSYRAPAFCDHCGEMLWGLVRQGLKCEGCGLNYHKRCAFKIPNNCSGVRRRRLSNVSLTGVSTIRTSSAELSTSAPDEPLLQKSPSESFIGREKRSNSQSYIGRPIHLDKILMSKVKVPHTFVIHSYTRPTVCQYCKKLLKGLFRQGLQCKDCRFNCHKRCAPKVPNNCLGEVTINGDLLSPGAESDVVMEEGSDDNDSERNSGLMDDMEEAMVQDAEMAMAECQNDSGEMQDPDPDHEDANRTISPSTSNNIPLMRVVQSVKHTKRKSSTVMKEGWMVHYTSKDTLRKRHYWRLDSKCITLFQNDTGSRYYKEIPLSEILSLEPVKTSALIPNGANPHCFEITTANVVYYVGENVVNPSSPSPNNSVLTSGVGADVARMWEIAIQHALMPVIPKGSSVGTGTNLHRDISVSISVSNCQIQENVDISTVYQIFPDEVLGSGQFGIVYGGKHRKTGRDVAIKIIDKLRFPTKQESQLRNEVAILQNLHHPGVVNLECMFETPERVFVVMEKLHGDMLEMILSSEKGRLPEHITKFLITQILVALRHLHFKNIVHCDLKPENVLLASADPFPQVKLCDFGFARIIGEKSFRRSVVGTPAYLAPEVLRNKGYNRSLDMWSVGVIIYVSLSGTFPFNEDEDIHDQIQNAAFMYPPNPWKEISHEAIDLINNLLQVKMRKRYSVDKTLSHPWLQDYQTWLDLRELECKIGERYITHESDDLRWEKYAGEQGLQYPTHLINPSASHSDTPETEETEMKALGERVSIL
Procedure: as §1

[32] = molecular target: T32, PKCtheta (Homo sapiens, UniProt Q04759)
T32 construct: purchased Reaction Biology Corp
Procedure: as §1

[33] = molecular target: T33, PKG1a (Homo sapiens, UniProt Q13976)
T33 construct: purchased Reaction Biology Corp
T33 sequence (Q13976 whole entry): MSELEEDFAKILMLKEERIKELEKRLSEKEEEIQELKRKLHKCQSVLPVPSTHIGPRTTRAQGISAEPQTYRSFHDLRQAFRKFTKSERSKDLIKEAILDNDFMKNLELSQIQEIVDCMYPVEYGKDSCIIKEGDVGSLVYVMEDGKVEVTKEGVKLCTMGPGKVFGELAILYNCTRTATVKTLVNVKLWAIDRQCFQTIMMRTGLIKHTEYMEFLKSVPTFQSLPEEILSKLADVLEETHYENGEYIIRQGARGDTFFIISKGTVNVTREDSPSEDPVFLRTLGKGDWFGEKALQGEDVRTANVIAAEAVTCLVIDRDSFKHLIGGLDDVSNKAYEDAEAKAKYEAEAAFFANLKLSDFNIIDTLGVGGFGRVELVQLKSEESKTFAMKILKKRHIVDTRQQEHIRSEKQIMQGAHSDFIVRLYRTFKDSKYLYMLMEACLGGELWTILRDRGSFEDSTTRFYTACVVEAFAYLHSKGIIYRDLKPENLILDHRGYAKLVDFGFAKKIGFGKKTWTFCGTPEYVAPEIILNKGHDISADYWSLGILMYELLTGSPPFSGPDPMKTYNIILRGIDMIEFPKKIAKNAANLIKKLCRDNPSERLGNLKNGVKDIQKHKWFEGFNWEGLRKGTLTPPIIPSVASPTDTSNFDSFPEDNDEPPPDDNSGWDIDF
Procedure: as §1

[34] = molecular target: T34, PLK2 (Homo sapiens, UniProt Q9NYY3)
T34 construct: purchased Reaction Biology Corp
Procedure: as §1

[35] = molecular target: T35, ROCK1 (Homo sapiens, UniProt Q13464)
T35 construct: purchased Reaction Biology Corp
Procedure: as §1

[36] = molecular target: T36, RSK1 (Homo sapiens, UniProt Q15418)
T36 construct: purchased Reaction Biology Corp
Procedure: as §1

[37] = molecular target: T37, SNRK (Homo sapiens, UniProt Q9NRH2)
T37 construct: purchased Reaction Biology Corp
Procedure: as §1

[38] = molecular target: T38, STK25/YSK1 (Homo sapiens, UniProt O00506)
T38 construct: purchased Reaction Biology Corp
T38 sequence (O00506 whole entry): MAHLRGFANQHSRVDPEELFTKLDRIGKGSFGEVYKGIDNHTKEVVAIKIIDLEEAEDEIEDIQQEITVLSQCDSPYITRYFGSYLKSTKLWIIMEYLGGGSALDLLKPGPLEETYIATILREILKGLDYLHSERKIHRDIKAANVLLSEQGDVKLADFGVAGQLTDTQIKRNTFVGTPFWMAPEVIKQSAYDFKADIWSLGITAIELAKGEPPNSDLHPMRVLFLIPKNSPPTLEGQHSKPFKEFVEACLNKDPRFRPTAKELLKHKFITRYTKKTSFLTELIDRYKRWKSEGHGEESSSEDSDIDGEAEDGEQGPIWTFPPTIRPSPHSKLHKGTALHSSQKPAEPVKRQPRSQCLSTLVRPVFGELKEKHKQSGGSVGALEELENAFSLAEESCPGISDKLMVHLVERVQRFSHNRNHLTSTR
Procedure: as §1

[39] = molecular target: T39, TTBK1 (Homo sapiens, UniProt Q5TCY1)
T39 construct: purchased Reaction Biology Corp
Procedure: as §1

[40] = molecular target: T40, TTBK2 (Homo sapiens, UniProt Q6IQ55)
T40 construct: purchased Reaction Biology Corp
Procedure: as §1

[41] = molecular target: T41, ULK1 (Homo sapiens, UniProt O75385)
T41 construct: purchased Reaction Biology Corp
Procedure: as §1

[42] = molecular target: T42, WNK2 (Homo sapiens, UniProt Q9Y3S1)
T42 construct: purchased Reaction Biology Corp
Procedure: as §1

[43] = molecular target: T43, ZIPK/DAPK3 (Homo sapiens, UniProt O43293)
T43 construct: purchased Reaction Biology Corp
Procedure: as §1

With `Cc1ccc(Nc2ncc3c(n2)N(C)C(=O)N(c2cc(C(=O)N[C@H](C(=O)N4CCC[C@H]4C(=O)NC(C)(C)C(=O)N[C@@H](CC(C)C)C(=O)N(C)C)C(C)C)ccc2C)C3)cn1` [7a, (S)-N-(1-(((S)-1-(dimethylamino)-4-methyl-1-oxopentan-2-yl)amino)-2-methyl-1-oxopropan-2-yl)-1-((4-methyl-3-(1-methyl-7-((6-methylpyridin-3-yl)amino)-2-oxo-1,4-dihydropyrimido[4,5-d]pyrimidin-3(2H)-yl)benzoyl)-L-valyl)pyrrolidine-2-carboxamide] (X1-VP[Aib]L-NMe2) the inhibition at 1 µM [1] was 0%, the inhibition at 1 µM [2] was 0% and the inhibition at 1 µM [3] was 7%. It also gave an inhibition at 1 µM [4] of 8%, an inhibition at 1 µM [5] of 0% and an inhibition at 1 µM [6] of 0%. For the same molecule, the inhibition at 1 µM [7] was 0%, the inhibition at 1 µM [8] was 0% and the inhibition at 1 µM [9] was 6%. The inhibition at 1 µM [10] was 0%, the inhibition at 1 µM [11] was 0% and the inhibition at 1 µM [12] was 58%. It also gave an inhibition at 1 µM [13] of 3%, an inhibition at 1 µM [14] of 3% and an inhibition at 1 µM [15] of 0%. For the same molecule, the inhibition at 1 µM [16] was 5%, the inhibition at 1 µM [17] was 12% and the inhibition at 1 µM [18] was 60%. For the same molecule, the inhibition at 1 µM [19] was 80%, the inhibition at 1 µM [20] was 13% and the inhibition at 1 µM [21] was 0%. For the same molecule, the inhibition at 1 µM [22] was 0%, the inhibition at 1 µM [23] was 14% and the inhibition at 1 µM [24] was 0%. The inhibition at 1 µM [25] was 8%, the inhibition at 1 µM [26] was 33% and the inhibition at 1 µM [27] was 0%. The inhibition at 1 µM [28] was 0%, the inhibition at 1 µM [29] was 4% and the inhibition at 1 µM [30] was 3%. For the same molecule, the inhibition at 1 µM [31] was 0%, the inhibition at 1 µM [32] was 0% and the inhibition at 1 µM [33] was 0%. The inhibition at 1 µM [34] was 0%, the inhibition at 1 µM [35] was 13% and the inhibition at 1 µM [36] was 17%. For the same molecule, the inhibition at 1 µM [37] was 9%, the inhibition at 1 µM [38] was 3% and the inhibition at 1 µM [39] was 0%. For the same molecule, the inhibition at 1 µM [40] was 7%, the inhibition at 1 µM [41] was 0% and the inhibition at 1 µM [42] was 7%. The inhibition at 1 µM [43] was 6%.
